Values of other authors in paper PMC9972852, “Multivalent effect of peptide functionalized polymeric nanoparticles towards selective prostate cancer targeting” (Nanoscale Advances, 2023).

System: extracellular domain of PSMA
Conditions: monomeric peptide WQPDTAHHWATL
Text: Prostate specific membrane antigen (PSMA) is a 100 kDa type II transmembrane glycosylated protein with folate hydrolase activity and is overexpressed not only in nearly all prostate cancer cells,[6] but also in tumor neovasculature in a variety of cancers.[6–8] In contrast, it has minimal expression (100–1000 times lower) in normal prostate epithelium tissues and other normal tissues,[7,9] making it an ideal biomarker for the design of various targeted therapies. Several different kinds of targeting ligands against PSMA have been discovered over the years;[10–12] however, they have not yet had ...

In the case of “WQPDTAHHWATLC [WQP peptide, PSMA-targeting cell targeting peptide …, synthesized with an added C-terminal cysteine]”, the “Binding affinity to the extracellular domain of PSMA” value is given as “moderate/low”.
